ChEMBL document CHEMBL4118051, “Scalemic Caged Xanthones Isolated from the Stem Bark Extract of Garcinia propinqua” (J Nat Prod, 2017)

System: HCT-116
Experiment: Cytotoxicity against human HCT116 cells after 24 hrs by MTT assay
Type: functional, cell-based
Conditions: HCT-116, 24 h

SMILES | IC50
CO[C@H]1[C@@H]2C[C@H]3C(C)(C)O[C@@](/C=C/C(C)(C)O)(C2=O)[C@@]32Oc3c(c(O)cc4c3C(C)(C)C(C)O4)C(=O)[C@H]12 (stereo partly drawn) | 14.2 µM
CC(C)=CCOc1cc(O)c2c(c1)OC13C(=CC4CC1C(C)(C)OC3(CC=C(C)C)C4=O)C2=O (mixture of isomers) | 23.9 µM
COc1cccc2c1C(=O)c1c(O)c3c(c(O)c1C2=O)C[C@@](O)(C(=O)CO)C[C@@H]3O[C@H]1C[C@H](N)[C@H](O)[C@H](C)O1 [DOXORUBICIN] | 9.74 µM
